# Measurements reported in patent US9616062B2, “Cyclin dependent kinase inhibitors and methods of use” (priority 2009, dated 2017).
# How the values were obtained:
# [1] = test system: primary human renal proximal tubule epithelial cells; test: Cell cycle analysis (propidium iodide, flow cytometry); assay type: cell-based; details: 16 hours
# Description: (§1) Representative histograms of cell cycle analysis of Primary human renal proximal tubule epithelial cells treated with varying concentrations of PD0332991 for 16 hours. Cells were harvested, fixed, stained, and analyzed by flow cytometry. Data was fitted using Mod-Fit™ software from Verity (Verity Software House, Topsham, Me., United States of America).
# as §1, with “Cell” for “Representative histograms of cell”, “America). Corresponding % of cells in G1 (diamonds), G2/M (squares) and S (triangles) are shown on the graph.” for “America).”
# Primary normal human renal proximal epithelial cells (American Type Culture Collection (ATCC), Manassas, Va., United States of America) were cultured in renal epithelial cell basal media supplemented with renal epithelial cell growth kit according to the manufacturer's recommendations. […] For the γH2AX assay, cells were fixed, permeabilized, and stained with anti-γH2AX as per γH2AX Flow Kit (Millipore, Billerica, Mass., United States of America). γH2AX levels were assessed by flow cytometry. Cell proliferation was assessed by seeding 1×10^3 cells per well in a 96-well tissue culture plate in 100 μL of growth medium. […]
# [2] = test system: H417 small cell lung cancer cell line (intact RB); test: SCLC cell proliferation, WST-1, RB-intact line; assay type: cell-based; details: 100 nM
# Description: FIG. 8: CDK4/6 inhibition potentiates proliferation of Rb deficient cells. […] Cell proliferation was assessed using WST-1 reagent. Each data point represents the mean of four replicates +/−SEM. CDK4/6 inhibition increases cell proliferation of RB-deficient cell lines.
# Primary normal human renal proximal epithelial cells (American Type Culture Collection (ATCC), Manassas, Va., United States of America) were cultured in renal epithelial cell basal media supplemented with renal epithelial cell growth kit according to the manufacturer's recommendations. […] For the γH2AX assay, cells were fixed, permeabilized, and stained with anti-γH2AX as per γH2AX Flow Kit (Millipore, Billerica, Mass., United States of America). γH2AX levels were assessed by flow cytometry. Cell proliferation was assessed by seeding 1×10^3 cells per well in a 96-well tissue culture plate in 100 μL of growth medium. […] At the end of the recovery period, cell number was quantified using CellTiter-Glo® (Promega, Fitchburg, Wis., United States of America) or WST-1 reagent (TaKaRa Bio USA, Madison, Wis., United States of America). Cellular cytotoxicity was assessed using the TOXILIGHT™ Bioassay kit (Lonza, Basel, Switzerland) which measures cytolysis by quantifying the release of Adenylate Kinase into the culture media. […] 100 μL of TOXILIGHT™ reagent is added and incubated for 5 minutes and read in a luminometer at 1 second/well. […]
smiles,measurement,setting,value
"CC(=O)c1c(C)c2cnc(Nc3ccc(N4CCNCC4)cn3)nc2n(C2CCCC2)c1=O [PD0332991, 6-acetyl-8-cyclopentyl-5-methyl-2-(5-piperazin-1-yl-pyridin-2-ylamino)-8H-pyrido-[2,3-d]-pyrimidin-7-one]","cell cycle arrest (G0/G1, G2/M, S fractions)","[1]; 0, 10 nM-1 uM",induces a G1 arrest
same,cytotoxicity during G1 arrest,[1]; varying concentrations,without evidence of cytotoxicity
same,cell proliferation (WST-1) vs DMSO,[2],decreased
